In US8865197B2, “Food formulation for aquatic animals with integrated targeted delivery of bioactive agents” (Israel Oceanographic and Limnological Research Ltd., priority 2005, dated 2014):

System: rainbow trout
Assay: Cannulation experiment: plasma cortisol response to oral ACTH with gut modulators
Format: in vivo, rainbow trout (Oncorhynchus mykiss)
Conditions: for Cumulative plasma cortisol: over a 360 min period, oral ACTH 0.5 mg kg^−1
Method: Rainbow trout of a weight range of 750-1700 g (Spring Valley Trout Farms, Langley, BC) were immunized against firunculosis and vibriosis by injecting them with 0.2 ml fish^−1 of a 1:1 ratio of VIBRIOGEN and FUROGEN (Microtek, BC, Canada), and stocked in 4,000 liter tanks. The tanks were supplied with well water at a temperature of 10±0.5° C. at about 10 exchanges per day. After 10 days fish were transferred gradually over a period of another 10 days to full strength seawater (25-29 ppt). The temperature of the seawater ranged between 7-9° C. according to season. Only following their acclimation to seawater, after another 10 days, were fish used. […] Fish were fed daily about 1% BW of a 42% protein and 33% crude fat diet (Moore-Clark Co., Canada).
Fish were kept individually in 200 1 fiberglass tub aquaria. Fish in the tanks were confined to one half of the tank with a partition. […] In addition, fish were encouraged to swim against a current, which was generated by a pipe which directed the water inflow to the surface of the tank. The experimental fish were not fed within a given experiment, which normally lasted for 5 days, and were force fed once a week with a 0.5% body weight of a Moore Clark “Royal extrude salmon feed” (42% C.P., 33% C.F.), which was mixed with water at a 1:1 ratio to give a paste which could be intubated into the fish.
Fish were anesthetized in two stages. They were first sedated in metomidate hydrochloride (Marinil, Wildlife laboratories Inc. CO, USA) in a 250 ppb solution in the 4000 liter holding tanks with the water supply turned off. Fish were netted out of the 4,000 liter tanks into 15 liter of well aerated 100 ppm MS222 (3 amino benzoic acid ethyl ester; SIGMA) solution in SW for a deeper anesthesia. Fish were sedated until active gill ventilation ceased at which point they were taken out of the water, weighed and cannulated.
Samples were taken of blood to determine plasma cortisol or hCG. Blood sampling was done in two stages: First a volume equal to the dead volume of the cannula (˜250 μl) was withdrawn and discarded, this was followed by sampling 250-500 μl blood, depending on the RIA assay (cortisol or hCG), into a 1 ml EDTA-Aprotinin coated syringe. The blood samples were kept in 500 μl Eppendorf tubes on ice for up to two hours within which time the tubes were centrifuged at 13,000 rpm for 5 min. The supernatant plasma was removed by disposable Pasteur pipettes into Eppendorff tubes and stored at −40° C. until the RIA. When blood samples were taken for hCG analysis they were centrifuged for 5 minutes at 3750 rpm at 5° C.
To measure plasma cortisol, 20 μl of plasma was applied to a kit by INCSTAR (Minnesota, USA). No significant crossreactivity of this kit was found with dexamethasone (9α-Fluoro-16α-Methyl Predindone, SIGMA), while it crossreacted with cortisol (hydrocortisone; SIGMA), which was used in the clearance rate experiments. Porcine ACTH (SIGMA) which was used for the intubation study elicited a cortisol response in fish but could not be detected reliably by the cortisol RIA. Plasma hCG was also determined based on a RIA (INCSTAR) kit and of the orally applied hCG based on Van der Kraak et al. (1984). ACTH stimulates cortisol production in the interrenal cells of the kidney.

Compound: C[C@H](CCC(=O)O)[C@H]1CC[C@H]2[C@@H]3CC[C@@H]4C[C@H](O)CC[C@]4(C)[C@H]3C[C@H](O)[C@]12C [DOC, deoxycholic acid]
- cumulative response of cortisol to plasma ACTH (DOC molar concentration 0.0167 in the intubation medium (PBS)): 7042±3243 ng cortisol kg^−1

Compound: O=c1[nH]c2ccccc2n1CCCN1CCC(n2c(=O)[nH]c3cc(Cl)ccc32)CC1 [DOM, domperidone]
- gut penetrability to ACTH as reflected by plasma cortisol (change relative to no modulator): quadrupled
- Cumulative plasma cortisol (DOM 4.5 mg kg^−1): 4329 ng/kg

Compound: ACTH
- cumulative response of cortisol to plasma ACTH (DOC molar concentration 0 in the intubation medium (PBS)): 1454±597 ng cortisol kg^−1
- Cumulative plasma cortisol (DOM 0 mg kg^−1): 1086 ng/kg
